In ChEMBL document CHEMBL1201862, “PubChem BioAssay data set” (2004):
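The compound was tested at five concentrations on cells cultured in 96-well plates, with a 48-hour exposure period. At the GI50, growth is halved.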 Calls of active or inactive are those of the source. Rule as the data show it: active = GI50 up to about 1.1 µM and inactive = higher.

How the values were obtained:
Assay in all cases: inhibition of tumour cell growth, NCI panel, 48 h
786-0 = test system: 786-0
BT-549 = test system: BT-549
CCRF-CEM = test system: CCRF-CEM
COLO 205 = test system: COLO 205
HOP-92 = test system: HOP-92
K562 = test system: K562
KM12 = test system: KM12
LOX IMVI = test system: LOX IMVI
MCF7 = test system: MCF7
NCI-H460 = test system: NCI-H460
OVCAR-5 = test system: OVCAR-5
OVCAR-8 = test system: OVCAR-8
RXF 393 = test system: RXF 393
SF-268 = test system: SF-268
SF-539 = test system: SF-539
SK-MEL-2 = test system: SK-MEL-2
SK-OV-3 = test system: SK-OV-3
SNB-19 = test system: SNB-19
TK-10 = test system: TK-10
UACC-62 = test system: UACC-62

Measured: GI50

NC(=S)N/N=C/c1c[nH]c2ccccc12
inactive: 786-0 > 100 µM | BT-549 > 100 µM | CCRF-CEM 10.8 µM | COLO 205 > 100 µM | HOP-92 21.6 µM | K562 > 100 µM | KM12 > 100 µM | LOX IMVI > 100 µM | MCF7 > 100 µM | NCI-H460 > 100 µM | OVCAR-5 > 100 µM | OVCAR-8 > 100 µM | RXF 393 > 100 µM | SF-268 > 100 µM | SF-539 > 100 µM | SK-MEL-2 > 100 µM | SK-OV-3 > 100 µM | SNB-19 > 100 µM | TK-10 > 100 µM | UACC-62 > 100 µM

COc1ccc2[nH]cc(C=C3C(=O)NC(=S)NC3=O)c2c1
inactive: 786-0 31.6 µM | BT-549 53 µM | CCRF-CEM 71.8 µM | COLO 205 > 100 µM | HOP-92 73.6 µM | K562 > 100 µM | KM12 > 100 µM | LOX IMVI > 100 µM | MCF7 > 100 µM | NCI-H460 > 100 µM | OVCAR-5 > 100 µM | OVCAR-8 36.6 µM | RXF 393 30.3 µM | SF-268 19.8 µM | SF-539 > 100 µM | SK-MEL-2 92.3 µM | SK-OV-3 52.2 µM | SNB-19 62.1 µM | TK-10 38.9 µM | UACC-62 > 100 µM

CCOC(=O)/C1=C(\C)N(c2ccc(C)cc2)C(=O)c2ccccc2C(=O)c2c(OC(C)=O)ccc(OC(C)=O)c21
inactive: 786-0 34.8 µM | BT-549 25.3 µM | CCRF-CEM 10.8 µM | COLO 205 13.5 µM | HOP-92 29.9 µM | K562 16.1 µM | KM12 15 µM | LOX IMVI 14.4 µM | MCF7 26.1 µM | NCI-H460 18.3 µM | OVCAR-5 21.9 µM | OVCAR-8 36.8 µM | RXF 393 22.2 µM | SF-268 37.5 µM | SF-539 25.8 µM | SK-MEL-2 24 µM | SK-OV-3 17.2 µM | SNB-19 25.2 µM | TK-10 19.3 µM | UACC-62 15 µM
